Molecular target: T1, fatty acyl CoA:cholesterol acyl transferase (ACAT) (Rattus norvegicus, UniProt O70536)
T1 construct: The supernatant, containing the microsomal fraction, served as the source of the cholesterol-esterifying enzyme; from tissue; host or cells: rat adrenals (1000 x g supernatant containing the microsomal fraction)
T1 sequence (O70536 1-545): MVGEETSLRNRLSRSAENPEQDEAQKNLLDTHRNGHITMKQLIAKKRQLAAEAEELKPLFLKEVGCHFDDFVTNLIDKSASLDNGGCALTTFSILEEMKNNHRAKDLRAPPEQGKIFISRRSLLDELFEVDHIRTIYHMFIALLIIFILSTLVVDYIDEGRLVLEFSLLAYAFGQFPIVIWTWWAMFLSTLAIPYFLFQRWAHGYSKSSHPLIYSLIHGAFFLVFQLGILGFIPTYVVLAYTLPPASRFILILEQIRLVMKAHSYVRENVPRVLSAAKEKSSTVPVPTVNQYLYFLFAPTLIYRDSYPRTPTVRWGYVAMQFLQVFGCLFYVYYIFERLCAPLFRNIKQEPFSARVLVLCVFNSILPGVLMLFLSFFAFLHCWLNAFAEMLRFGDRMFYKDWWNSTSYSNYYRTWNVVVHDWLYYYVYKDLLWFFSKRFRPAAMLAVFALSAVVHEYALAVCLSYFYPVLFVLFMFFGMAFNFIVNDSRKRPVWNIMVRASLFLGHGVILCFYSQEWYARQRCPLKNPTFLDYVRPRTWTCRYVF
Assay: Inhibition of ACAT in rat adrenal microsomal supernatant (14C-oleoyl CoA, cholesteryl ester counted)
Format: biochemical
Parameters: dose or concentration left out as unconfirmed
Settings: vs control without compound
Experimental: The compounds of the present invention were assayed for two types of biological activity related to their potential use as antiatherosclerotic agents. Compounds were tested in vitro for the ability to inhibit the enzyme fatty acyl CoA:cholesterol acyl transferase (ACAT) and in vivo for serum hypolipidemic activity as measured by their ability to inhibit lipid absorption in rats. The compounds were tested for their ability to inhibit ACAT according to the following procedure:
Rat adrenals were homogenized in 0.2 M monobasic potassium phosphate buffer, pH 7.4, and centrifuged at 1000 times gravity for 15 minutes at 5° C. The supernatant, containing the microsomal fraction, served as the source of the cholesterol-esterifying enzyme, fatty acyl CoA:cholesterol acyl transferase (ACAT). A mixture comprising 50 parts of adrenal supernatant, 10 parts of albumin (BSA) (50 mg./ml.), 3 parts of test compound (final concentration […].) and 500 parts of buffer was preincubated at 37° C. for 10 minutes. After treatment with 20 parts of oleoyl CoA(^14 C-[…]) the mixture was incubated at 37° C. for 10 minutes. A control mixture, omitting the test compound, was prepared and treated in the same manner. The lipids from the incubation mixture were extracted into an organic solvent and separated by thin-layer chromatography. The cholesteryl ester fraction was counted in a scintillation counter. This procedure is a modification of that described by Hashimoto, et al., Life Scie., 12 (Part II), 1-12 (1973).

Row | % Inhibition [%] | Molecule
1 | 83.1 | CCCCN(CCCC)C(=O)Nc1ccc(I)cc1 [1,1-di-(n-butyl)-3-(4-iodophenyl)urea, 1,1-Di-(n-butyl)-3-(4-iodophenyl)urea]
2 | 87.6 | CCCCN(CCCC)C(=O)Nc1cccc(C)c1C [1,1-Di-(n-butyl)-3-(2,3-dimethylphenyl)urea]
3 | 55.9 | CCCCN(CCCC)C(=O)Nc1ccc(F)cc1 [1,1-di-(n-butyl)-3-(4-fluorophenyl)urea, 1,1-Di-(n-butyl)-3-(4-fluorophenyl)urea]
4 | 26.3 | CCCCCCCCCCCCN(CCCCCCCCCCCC)C(=O)Nc1ccc(C)cc1C [1,1-Di-(n-dodecyl)-3-(2,4-dimethylphenyl)urea]
5 | 70.0 | CCCCN(CCCC)C(=O)Nc1ccc(Cl)cc1Cl [1,1-Di-(n-butyl)-3-(2,4-dichlorophenyl)urea]
6 | 73.4 | CCCCN(CCCC)C(=O)Nc1c(C)cc(C)cc1C [1,1-Di-(n-butyl)-3-(2,4,6-trimethylphenyl)urea]
7 | 35.4 | CC(C)CN(CC(C)C)C(=O)Nc1ccccc1Cl [1,1-di-(isobutyl)-3-(2-chlorophenyl)urea]
8 | 94.3 | Cc1ccc(NC(=O)N(C2CCCCC2)C2CCCCC2)c(C)c1 [1,1-dicyclohexyl-3-(2,4-dimethylphenyl)urea]
9 | 84.7 | CCCCN(CCCC)C(=O)Nc1cccc(SC)c1 [1,1-Di-(n-butyl)-3-(3-methylthiophenyl)urea]
10 | 86.2 | CCCCC(CC)CN(CC(CC)CCCC)C(=O)Nc1ccc(C)cc1C (centres unmarked) [1,1-di-(2-ethylhexyl)-3-(2,4-dimethylphenyl)urea]
11 | 58.7 | CCCCN(CCCC)C(=O)Nc1ccc(OC)cc1 [1,1-di-(n-butyl)-3-(4-methoxyphenyl)urea, 1,1-Di-(n-butyl)-3-(4-methoxyphenyl)urea]
12 | 48.9 | CCCCCCCCCCCN(CCCCCCCCCCC)C(=O)Nc1ccc(C)cc1C [1,1-Di-(n-undecyl)-3-(2,4-dimethylphenyl)urea]
13 | 55.1 | CCCCN(CCCC)C(=O)Nc1ccc(C(C)=O)cc1 [1,1-di-(n-butyl)-3-(4-acetylphenyl)urea, 1,1-Di-(n-butyl)-3-(4-acetylphenyl)urea]
14 | 88.0 | CCCCN(CCCC)C(=O)Nc1ccc(Cl)cc1C [1,1-di-(n-butyl)-3-(4-chloro-2-methylphenyl)urea]
15 | 75.0 | CCCCN(CCCC)C(=O)Nc1cccc(C(F)(F)F)c1 [1,1-Di-(n-butyl)-3-(3-trifluoromethylphenyl)urea]
16 | 91.2 | CCCCN(CCCC)C(=O)Nc1ccc(C)c(Cl)c1 [1,1-Di-(n-butyl)-3-(3-chloro-4-methylphenyl)urea]
17 | 77.1 | CCCCN(CCCC)C(=O)Nc1cccc(OC)c1 [1,1-di-(n-butyl)-3-(3-methoxyphenyl)urea]
18 | 94.7 | Cc1ccc(NC(=O)N(CC(C)C)CC(C)C)cc1NC(=O)N(CC(C)C)CC(C)C [1,1-di-(isobutyl)-3-[(3,3-diisobutyl)urea-4-methylphenyl]urea]
19 | 91.1 | CCCCCCCN(CCCCCCC)C(=O)Nc1ccc(C)cc1C [1,1-Di-(n-heptyl)-3-(2,4-dimethylphenyl)urea]
20 | 78.1 | CCC(C)N(C(=O)Nc1ccc(C)cc1C)C(C)CC (centres unmarked) [1,1-Di-(sec-butyl)-3-(2,4-dimethylphenyl)urea]

Row | % Inhibition [%] | Molecule
21 | 74.3 | Cc1ccc(C)c(NC(=O)N(CC(C)C)CC(C)C)c1 [1,1-di-(isobutyl)-3-(2,5-dimethylphenyl)urea]
22 | 86.7 | CCCCN(CCCC)C(=O)Nc1ccc([N+](=O)[O-])cc1Cl [1,1-Di-(n-butyl)-3-(2-chloro-4-nitrophenyl)urea]
23 | 75.3 | CCCCN(CCCC)C(=O)Nc1cc(Cl)ccc1C [1,1-di-(n-butyl)-3-(5-chloro-2-methylphenyl)urea]
24 | 96.1 | CCCCN(CCCC)C(=O)Nc1cc(C)ccc1C [1,1-Di-(n-butyl)-3-(2,5-dimethylphenyl)urea]
25 | 86.3 | Cc1ccc(NC(=O)N(CCCCC2CCCCC2)CCCCC2CCCCC2)c(C)c1 [1,1-Di-(4-cyclohexyl-n-butyl)-3-(2,4-dimethylphenyl)urea]
26 | 76.4 | CCCCN(CCCC)C(=O)Nc1ccc(C(C)C)cc1 [1,1-Di-(n-butyl)-3-(4-isopropylphenyl)urea]
27 | 50.9 | CCCCN(CCCC)C(=O)Nc1cccc(C(C)=O)c1 [1,1-di-(n-butyl)-3-(3-acetylphenyl)urea, 1,1-Di-(n-butyl)-3-(3-acetylphenyl)urea]
28 | 94.5 | CCCCN(CCCC)C(=O)Nc1ccc(C)c(NC(=O)N(CCCC)CCCC)c1 [1,1-di-(n-butyl)-3-[(3,3-dibutyl)urea-4-methylphenyl]urea]
29 | 85.3 | CCCCN(CCCC)C(=O)Nc1c(C)cccc1C [1,1-Di-(n-butyl)-3-(2,6-dimethylphenyl)urea]
30 | 49.2 | CCCCN(CCCC)C(=O)Nc1ccc(C)c(C)c1 [1,1-Di-(n-butyl)-3-(3,4-dimethylphenyl)urea]
31 | 85.1 | 1,1-di-(n-butyl)-3-(2,3-dibenzophenyl)urea
32 | 86.0 | CCCCN(CCCC)C(=O)Nc1cccc(Br)c1 [1,1-di-(n-butyl)-3-(3-bromophenyl)urea, 1,1-Di(n-butyl)-3-(3-bromophenyl)urea]
33 | 41.2 | Cc1cccc(C)c1NC(=O)N(CC(C)C)CC(C)C [1,1-di-(isobutyl)-3-(2,6-dimethylphenyl)urea]
34 | 61.6 | CCCCN(CCCC)C(=O)Nc1cc(Cl)cc(Cl)c1Cl [1,1-Di-(n-butyl)-3-(2,3,5-trichlorophenyl)urea]
35 | 87.3 | CCCCN(CCCC)C(=O)Nc1ccc(Cl)c(C(F)(F)F)c1 [1,1-Di-(n-butyl)-3-(4-chloro-3-trifluoromethylphenyl)urea]
36 | 79.9 | CCCCN(CCCC)C(=O)Nc1ccc(C)cc1 [1,1-di-(n-butyl)-3-(4-methylphenyl)urea, 1,1-Di-(n-butyl)-3-(4-methylphenyl)urea]
37 | 71.0 | CCCCN(CCCC)C(=O)Nc1ccccc1Cl [1,1-di-(n-butyl)-3-(2-chlorophenyl)urea, 1,1-Di-(n-butyl)-3-(2-chlorophenyl)urea]
38 | 78.4 | CCCCN(CCCC)C(=O)Nc1cccc(C)c1 [1,1-di-(n-butyl)-3-(3-methylphenyl)urea, 1,1-Di-(n-butyl)-3-(3-methylphenyl)urea]
39 | 90.9 | CCCCN(CCCC)C(=O)Nc1ccc(F)c(Cl)c1 [1,1-Di-(n-butyl)-3-(3-chloro-4-fluorophenyl)urea]
40 | 71.8 | CCCCN(CCCC)C(=O)Nc1cccc(Cl)c1Cl [1,1-Di-(n-butyl)-3-(2,3-dichlorophenyl)urea]

Row | Molecule | % Inhibition [%]
41 | Cc1ccc(NC(=O)N(C2CCCC2)C2CCCC2)c(C)c1 [1,1-Di-(cyclopentyl)-3-(2,4-dimethylphenyl)urea] | 90.4
42 | CCCCN(CCCC)C(=O)Nc1cccc(Cl)c1 [1,1-di-(n-butyl)-3-(3-chlorophenyl)urea, 1,1-Di-(n-butyl)-3-(3-chlorophenyl)urea] | 88.3
43 | CCCCN(CCCC)C(=O)Nc1ccc(OCC)cc1 [1,1-di-(n-butyl)-3-(4-ethoxyphenyl)urea, 1,1-Di-(n-butyl)-3-(4-ethoxyphenyl)urea] | 78.6
44 | CCCCCCCCCN(CCCCCCCCC)C(=O)Nc1ccc(C)cc1C [1,1-Di-(n-nonyl)-3-(2,4-dimethylphenyl)urea] | 90.0
